By inhibition is commonly meant the percentage by which the read-out fell short of the control. One may read the IC50 as the concentration at which inhibition is half-maximal. A higher IC50 goes with lower potency.

The record followed here is PMC9959265, “Permethrin as a Potential Furin Inhibitor through a Novel Non-Competitive Allosteric Inhibition” (Molecules, 2023).

For data set [1], the system named is trypsin. The data set can be described thus: Inhibition effect on trypsin (control protease). Type of data set: biochemical. The settings on record: Figure S1E.
Data set [2] relates to Hep-G2 cells. The experiment in a line: Cellular cytotoxicity (CCK8), Hep-G2. The format is cell-based, human. The settings on record: Hep-G2 (high furin expression), 24 or 48 h. The procedure: (§1) Furin is highly expressed in liver cancer cells and has specific effects on hepatocellular carcinoma. Therefore, human hepatocellular carcinoma cells Hep-G2 were selected as experimental cells, cervical carcinoma cells HeLa with similar furin expression in Hep-G2 were selected as control, and human permanent hepatocytes L-02 were selected as negative control. DMEM was used for HeLa, and 1640 medium was used for Hep-G2 and L-02. After incubation for 24 h with 100 μL complete medium in 96-well plates with 8000 cells per well, the medium was aspirated, 100 μL serum-free medium containing a concentration gradient of the compound was added and the samples were incubated. After 24 or 48 h the drug-containing medium was aspirated and 100 μL medium solution containing 10% CCK8 was added, subsequently, the absorbance was measured at 450 nm using a microplate reader after 1 h of incubation.

In data set [3] the test system is HeLa cells. The data set can be described thus: Cellular cytotoxicity (CCK8), HeLa. The format is cell-based. The settings on record: HeLa (high furin expression), 24 or 48 h. Here is the method: as §1
The test system of data set [4] is L-02 cells. The data set can be described thus: Cellular cytotoxicity (CCK8), L-02. Type of data set: cell-based, human. The settings on record: L-02 normal liver cells (low furin expression), 24 or 48 h. The procedure: as §1
Data set [5] concerns the target T1, furin (Homo sapiens, UniProt P09958).
Experimental: For the measurement of enzymatic kinetics and inhibition kinetics, the substrate concentration gradients were set to 0 μM, 2 μM, 5 μM, 10 μM, 20 μM, 40 μM, 60 μM, 80 μM, 100 μM, 120 μM, and the compound concentration gradients to 0 μM, 25 μM, 50 μM, 100 μM. Furin was added to 100 mM HEPES assay system buffer (pH 6.0, containing 0.5% Triton X-100 and 5 mM CaCl2), followed by different concentrations of the compounds to be tested, preincubated at 37 °C for 5 min. Different concentrations of the substrate were added; the sample was incubated at 37 °C for 35 min, and quenched with 1% formic acid. The initial rate of the enzymatic reaction of furin was tested and the curve was plotted.
Data set [6] addresses T1, furin. The experiment in a line: Furin activity / inhibitor screening assay with Boc-R-V-R-R-AMC substrate. The format is biochemical. Also on record: His tag; host or cells: E. coli BL21 (DE3). Here is the method: Boc-Arg-Val-Arg-Arg-AMC (Boc-R-V-R-R-AMC) was used as a substrate for the detection of furin. It carries an AMC ([…]) moiety that fluoresces at an excitation wavelength of 370 nm and an emission wavelength of 460 nm.
The reaction was then incubated for 90 min at 37 °C, supplemented with 40 μM substrate, quenched using 1% formic acid and the enzyme activity was monitored using a Thermo Scientific Varioskan Flash Multi-Mode Microplate Reader.

T1 sequence (P09958 108-574 limits assumed): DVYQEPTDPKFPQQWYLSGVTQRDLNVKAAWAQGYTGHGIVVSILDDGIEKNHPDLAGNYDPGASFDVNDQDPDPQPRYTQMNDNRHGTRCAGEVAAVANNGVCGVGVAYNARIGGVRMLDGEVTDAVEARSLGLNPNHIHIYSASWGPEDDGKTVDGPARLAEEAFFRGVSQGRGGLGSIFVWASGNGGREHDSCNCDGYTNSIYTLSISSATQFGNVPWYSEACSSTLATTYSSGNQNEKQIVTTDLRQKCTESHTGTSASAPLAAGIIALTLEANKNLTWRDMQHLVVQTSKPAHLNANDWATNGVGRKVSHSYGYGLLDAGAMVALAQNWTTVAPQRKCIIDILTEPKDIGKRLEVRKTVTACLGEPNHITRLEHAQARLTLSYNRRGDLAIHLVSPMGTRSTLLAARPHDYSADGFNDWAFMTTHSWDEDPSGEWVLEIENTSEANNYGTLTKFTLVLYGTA

On to `CC1(C)C(C=C(Cl)Cl)C1C(=O)OCc1cccc(Oc2ccccc2)c1` (stereo not drawn) [YJJ-B0887, permethrin], for which the “inhibitory activity against trypsin” value in data set [1] was “to neither enzyme, permethrin has inhibitory activity”. Further, the figures for the cytotoxic effect result in data set [2], in data set [3] and in data set [4] were “stronger cytotoxic effect”, “higher cytotoxic effect” and “much weaker”, respectively. In addition, in data set [5], the mode of inhibition result is “non-competitive inhibitor”. For the same compound, in data set [5] (permethrin 0, 25, 50, 100 μM), the “Km of furin on addition of inhibitor” value was “does not change”. Further, in data set [5] (permethrin 0, 25, 50, 100 μM), the “maximum reaction rate of furin on addition of inhibitor” value is listed as “decreases”. Moreover, the inhibition at 50 µM in data set [6] (50 μM compound, read-out: Inhibition Rate (50 μM)) worked out at 55.9%. This compound also registered an IC50 in data set [6] (furin, 40 μM Boc-R-V-R-R-AMC, pH 6.0, 37 °C) of 38.7 µM.
